In test [1] the test system is vascular smooth muscle cells (VSMC) derived from WKY rat aortic tunica media. Briefly: Proliferation ability of VSMC ([3H] thymidine uptake method). In kind it is cell-based. As to conditions: for [3H] thymidine uptake: 24 hours of culture, n = 5. The procedure:
(1) Effect on Proliferation Ability of Vascular Smooth Muscle Cells (VSMC) Derived from WKY Rat Aortic Tunica Media (Method) VSMC were separated and cultured according to the method of Yamamoto et al. (Yamamoto H, et al., Br. J. Exp. Pathol. 64; 156-165, 1983). The proliferation ability of VSMC was determined according to the method of Berk et al. [[^3H] thymidine uptake method; Berk B C, et al., J. Cell Physiol. 137; 391-401, 1988]. A DMEM medium containing 10% serum was changed every two days and the cells were cultured on a dish. The cells after 5 to 10 passages were subjected to the experiment. VSMC were cultured in a medium containing 1.0% serum for 24 hours and in a serum free medium for 24 hours to synchronize the cell cycle. The VSMC were transferred to a medium containing 10% fetal calf serum or a serum free medium and [^3H] thymidine (2 μCi/ml) was added to each medium to label VSMC. The test drug (Y-27632) (10 μM or 30 μM) waw simultaneously added, and after 24 hours of culture, VSMC were recovered, admixed with a scintillator (ACSII, Amersham) and subjected to the measurement of radioactivity by a liquid scintillation counter (LS6500, Beckman), based on which the [^3H] thymidine uptake was measured.

The test system is the same in test [2]. Briefly: Migration ability of cultured VSMC (96 well chemotaxis chamber, A595). To be noted: for A595 (VSMC migrated to the lower surface of the membrane): Y-27632 10 μM, cultured for 18 hours. In kind it is cell-based. The procedure:
(2) Effect on Migration Ability of Cultured VSMC (Method) A serum free medium or a medium containing 10% serum, which contained the test drug (Y-27632, 10 μM), was placed in a 96 well chemotaxis lower chamber, and a serum free medium containing the test drug was placed in 96 well chemotaxis upper and lower chambers where VSMC were suspended, and then cultured for 18 hours. The VSMC migrated to the lower surface of the membrane were stained with QuickDiff (International Reagents Corporation) and absorbance was measured at A595.

The subject of test [3] is left carotid artery intima of WKY rats. Briefly: Proliferation of regenerated intima after balloon injury of carotid artery in rat. In kind it is in vivo. To be noted: 30 mg/kg intraperitoneal, consecutively from 3 days before operation, 14 days after the operation, control 1.88±0.24, sham 0.03±0.01. The procedure: Effect on Proliferation of Regenerated Intima after Balloon Injury of Carotid Artery in Rat 2F Fogarty catheter was inserted from the outer left carotid artery of 8-week-old male WKY rats under anesthesia and inflated in the left common carotid artery, whereby intima was detached in the entire length. Physiological saline was consecutively administered to a control group, and the test drug (Y-27632) (30 mg/kg) was consecutively administered to a test group, wherein both groups underwent intraperitoneal administration starting from 3 days before operation. The rats free of the intima detachment treatment were used as a sham group. At 14 days after the operation, left carotid artery was subjected to perfusion fixation and removed thereafter, stained with HE, and a new intima thickness/medial thickness (I/M) ratio was measured.

SMILES strings stand for the structures.

For the compound `C[C@@H](N)[C@H]1CC[C@H](C(=O)Nc2ccncc2)CC1` [Compound Y-27632, (+)-trans-4-(1-aminoethyl)-1-(4-pyridylcarbamoyl)cyclohexane 2HCl.1H2O], the “[3H] thymidine uptake” value stood at 360153 ± 10425 dpm/dish in test [1] (+10% FCS, Y-27632 10 μM); 366089 ± 12882 dpm/dish in test [1] (+10% FCS, Y-27632 30 μM); 150381 ± 6515 dpm/dish in test [1] (FCS-free medium, Y-27632 10 μM); 127767 ± 2482 dpm/dish in test [1] (FCS-free medium, Y-27632 30 μM). Further, in test [1] (serum stimulation group and control group (serum free)), the “effect on [3H] thymidine uptake (in words)” value was “did not affect”. Moreover, the “A595 (VSMC migrated to the lower surface of the membrane)” value in test [2] (+10% FCS) is recorded as 0.036 ± 0.010 arbitrary unit/well; in test [2] (FCS-Free), 0.007 ± 0.003 arbitrary unit/well. In test [2] (both medium containing 10% serum and serum free medium), the “effect on migration ability of VSMC (in words)” value is on record as “suppressed the migration ability”. Moreover, in test [3], the “new intima thickness/medial thickness (I/M) ratio” value was 0.46±0.22.

(Values after US20060122214A1, “Agent for prophylaxis and treatment of angiostenosis” (priority 1999, published 2006).)
